Patent publication US20250200763A1, “4D FLUORESCENCE MICROSCOPY ORGANELLE NETWORK TRACKING” (THE REGENTS OF THE UNIVERSITY OF CALIFORNIA, priority 2022, published 2025)
Entries after “also recorded” stand apart in the source; their conditions may differ.

Assays:
[1] = system: mitochondrial network in hiPSCs; test: Network reachability: random walk / material diffusion simulation on tracked temporal mitochondrial networks; type: cell-based, human; settings: drug-treated, control 0.18
Method: To quantify transport across the 4D mitochondrial network, a random walk on the tracked temporal mitochondrial networks was simulated and the process was measured in the form of network reachability (see “Material diffusion simulation on temporal mitochondrial networks”). Reachability for a node indicates how easily can material/information reach this node from various parts of the overall network, via the time respecting paths defined by the network tracking.
Diffusion simulation was used on temporal dynamic mitochondrial network to understand the flow of material in mitochondrial networks. To calculate global reachability, we initiate a virtual token at every node of the mitochondrial network at the first timestep. Each token is labeled by the source node from which it originated. At every timestep, each node duplicates the tokens it currently has, and transfers them to the connected neighbors. At the end of the simulation, the global reachability for each node is quantified by the number of unique tokens at that node, corresponding to the number of source nodes this node can reach.
FIGS. 25A and 25B illustrate schematics for material diffusion simulation on temporal network. FIG. 25A illustrates the global reachability simulation. From each node, material can diffuse into the neighboring nodes or stay in the source node. All possible diffusion pathways over time are marked with an arrow. Time is depicted from left to right. Arrows in different thicknesses 2502, 2504, 2506, 2508, 2510, 2512 indicate representative simulation scenarios. After four timesteps, the target node labeled with X has accumulated three tokens (through the transport arrows). FIG. 25B illustrates the calculation for betweenness centrality used for determining the central nodes.
Drug Treatments: All drugs were dissolved in DMSO to make a stock solution and diluted in PBS to prepare a 100× working stock. Cells were treated with oligomycin (20 μM, 2 hr), nocodazole (5 uM, 30 min), and MDIVI-1 (10 μM, 12 hr) without wash. […]

[2] = system: mitochondrial network in hiPSCs; test: Mitochondrial temporal network remodeling (mean degree difference, temporal intersection) from MitoTNT 4D tracking of LLSM data; type: cell-based, human; settings: drug-treated; for mean degree difference (DD): control DD 0.28, low DD = little remodeling; for temporal intersection (TI): control TI 0.58, low TI = drastic remodeling
Method: To quantify mitochondrial network remodeling, the mean degree difference (DD) and the temporal intersection (TI) were calculated. A low DD indicates a low rate of nodes breaking off from their neighbors and reconnecting with other nodes. Inversely, a low TI implies that the network is very dynamic and does undergo drastic remodeling. […] In contrast, when treated with oligomycin, it was observed a 0.52 DD and 0.44 TI indicating a high level of network remodeling. Cytoskeleton influences drive network remodeling events were hypothesized.
Human induced pluripotent stem cell (hiPSC) culture: All studies involving hiPSCs were performed under approval from the University of California San Diego IRB/ESCRO committee. WTC hiPSCs expressing the CAAX domain of K-ras tagged with m TagRFP-T were created at the Allen Institute for Cell Science and obtained through the UCB Cell Culture Facility. hiPSC colonies were expanded on dishes coated with growth factor reduced Matrigel (Corning, 354230) in mTeSR1 (Stemcell Technologies, 85850) containing 1% penicillin/streptomycin (Gibco, 15140122). Colonies were washed with DPBS (Gibco, 14190144) and detached with accutase (Stemcell Technologies, 07920) before plating onto imaging dishes. Cultures were tested routinely for mycoplasma.
Drug Treatments: All drugs were dissolved in DMSO to make a stock solution and diluted in PBS to prepare a 100× working stock. Cells were treated with oligomycin (20 μM, 2 hr), nocodazole (5 uM, 30 min), and MDIVI-1 (10 μM, 12 hr) without wash.
Live cell imaging: 371 CAAX-RFPhiPSCs were stained with 100 nM Mito Tracker Green FM (Invitrogen, M7514) for 30 min prior to imaging. Cells were plated onto 25 mm MatTek dishes and imaged in phenol-red free mTeSR1 (Stemcell Technologies, 85850). Cells were kept under 5% CO2 and 37 degrees C. For imaging, Zeiss LLSM 7 was used with 10×N.A. 0.4 illumination objective lens and 48×375 N.A. 1.0 detection objective lens. Images were acquired in two channels: green channel with excitation at 488 nm and emission at 512 nm; red channel with excitation at 561 nm and emission at 597 nm. For both channels we used 18% laser power and 8 ms exposure. The illumination light-sheet was the Sinc3 beam with length 15 μm, thickness 650 nm and no side lobes. The volume size was 2048×448×57 pixels or 296.94×64.96×8.12 μm with isotropic pixel size 145 nm after coverglass transformation. Images were saved with bit depth 16 bits. For each region, 93 frames were imaged with frame rate 3.26 s per volume for total 5 min. For LLSM data processing, the Lattice Lightsheet 7 Processing Module on ZEN Blue was used for deconvolution, deskew, and cover glass transformation. Further processing is then done using MitoGraph and MitoTNT.

[3] = system: mitochondrial network in hiPSCs; test: Mitochondrial network motility and motion correlation analysis by node tracking; type: cell-based, human
From the text: To measure the network motility of the mitochondrial network, mean-square-displacements (MSDs) vs. time delay curves are computed following previous works. The node ensemble averaged MSDs are plotted for control and oligomycin (See FIGS. 24A and 24B). The MSDs for single tracks are plotted for control and oligomycin (See FIGS. 24C and 24D). Around 80% of the nodes have a coefficient of determination for linear fit greater than 0.8 (see FIG. 15F). To map diffusivity onto mitochondrial nodes, the network nodes are firstly chosen at a center frame. Next, the node track coordinates 10 frames before and 10 frames after the center frame are collected. In a last step, the MSDs are computed at various time delays in this time window to determine the diffusivity of each node.
To compute vector correlation, the displacement vector is firstly obtained for a selected node at a selected frame. Next, the vector correlation is computed, as well as the vectors for the selected node at timepoints 1 frame before and after the selected frame. The vector correlation is computed between this vector and vectors for the nodes directly connected to it and given by the dot product of two vectors, divided by the square of the norm of the longer vector. The final correlation value for the selected node at the selected time is reported as the average of these two values.
To further investigate network branch motility, tracking vectors correlated between adjacent nodes on the same segment, and between the same node at consecutive frames. […] In contrast, temporal correlation between frames is predominantly zero (random motion) to slightly negative (oscillating motion), while interspersed with short period of positive values (directional motion) as shown in FIG. 16E. […] In FIG. 16F, the correlation along skeleton 1610 and the correlation in time 1620 are shown. The ATP synthase inhibitor oligomycin that induces mitochondrial fragmentation was employed to investigate if motion correlation findings are dependent upon network morphologies as shown in FIGS. 16G and 16H. […]

[4] = system: mitochondrial network in hiPSCs; test: Fission/fusion preference with respect to fragment size (normalized network fragment size difference); type: cell-based, human; settings: hiPSCs with disrupted microtubules, vs DMSO control
Method: To detect fission and fusion events in the network, a sliding-window approach is applied to identify nodes that undergo persistent structural changes as opposed to transient segmentation variations. First, the fragment indices for each node are recorded for the half win size frames before and after the current frame, to form the fragment list. Second, for each network edge, the fragment lists for the connected nodes are compared. Fission will be declared if the fragment lists before the current frame are strictly identical, as well as the fragment lists after the current frame are strictly non-overlapping. Since fusion events can be considered as fission events reversed in time, the opposite criterion is used for fusion detection. In the case that multiple remodeling nodes are located in proximity (less than 5 edges away), the nodes are grouped into a single fission/fusion site. At last, the center of the sliding window is moved to the next frame and the computation is iterated.
To provide mechanistic insights into network remodeling, the motility between randomly selected nodes and nodes undergoing fission and fusion was compared. […] Based on node tracking, each individual mitochondrial network fragment can be tracked as shown in FIG. 17C and the selectivity of fission and fusion events recorded in terms of fragment size. […]

[5] = system: mitochondria networks in cells; test: Distribution of graph size ratio for fission/fusion events (preliminary 4D network tracking); type: cell-based; settings: microtubule-disrupted cells vs DMSO control cells
Method: Preliminary results. 4D mitochondrial network tracking and fission/fusion statistics analysis indicate a selection bias in fission and fusion reaction in normal cells, which is not present when cells are treated with nocodazole. FIGS. 3A and 3B show data plots depicting a distribution of graph size ratio for fission/fusion events. Depicted is the normalized mitochondria fragment size immediately after or before fission or fusion events, respectively. Graph size ratio for a particular mitochondria undergoing fission/fusion computed as the size of the mitochondria network normalized by the total size of all mitochondria networks involved. Values close to 0 and 1 correspond to small and large mitochondria relative to the total size. The metric is calculated and plotted for every fragment undergoing detected fission/fusion events. FIGS. 3A and 3B illustrate histogram bars and gaussian-smoothed curves for fission and fusion. The gaussian-smoothed curves 310 and 330 are for fission and the gaussian-smoothed curves 320 and 340 are for fusion.

Row | Structure (SMILES) | average reachability of network nodes [1] | mean degree difference (DD) [2] | temporal intersection (TI) [2] | motility of drug induced fragments ([3]; vs DMSO control) | spatial motion correlation (along skeleton) ([3]; vs control) | temporal motion correlation (between frames) ([3]; vs control) | asymmetric fission/fusion events [4] | distribution of graph size ratio for fission/fusion events (selection bias) [5]
1 | COc1cc(-n2c(=S)[nH]c3ccccc3c2=O)c(Cl)cc1Cl [mdivi-1] | 0.35 |  |  |  |  |  |  | 
2 | CC[C@H]1/C=C/C=C/C[C@@H](C)[C@H](O)[C@@](C)(O)C(=O)[C@@H](C)[C@H](O)[C@@H](C)C(=O)[C@@H](C)[C@H](O)[C@@H](C)/C=C/C(=O)O[C@@H]2[C@H](C)[C@H](CC1)O[C@]1(CC[C@H](C)[C@H](C[C@@H](C)O)O1)[C@H]2C [oligomycin] | 0.64 | 0.52 | 0.44 | move considerably faster compared to control | dropped | remains similar |  | 
3 | COC(=O)Nc1nc2ccc(C(=O)c3cccs3)cc2[nH]1 [nocodazole] | 0.29 | did not induce drastic changes | did not induce drastic changes |  |  |  | less pronounced but preserved; also recorded: a decrease in asymmetric fission/fusion | not present; also recorded: flatter distribution
